What all share (assay type): cell-based
The subject of experiment [1] is LPS-induced TNF-α production. Nature of the experiment: Inhibition of LPS-induced TNF-α production in human whole blood culture. The note with it: LPS 10 ng/ml, 6 h; for pIC50: IC50 by program calcdemo, read-out: IC50 to inhibit LPS-induced TNF-α production. The procedure:
(§1) Human blood sample (−20 ml) was taken from a peripheral venous (10 ml) of a healthy volunteer (20-50 years old, nonsmoker) using sterile endotoxin-free ethylenediaminetetraacetic (EDTA) tube and was immediately processed. The blood samples were divided into three different experimental conditions (groups): control, stimulating with LPS alone and LPS plus testing compound. Each group contained five blood samples from different individuals. In control group, 100 μl of whole blood sample were diluted with 900 μL of RPMI 1640 in 24 wells plate. In LPS only group or LPS plus testing compound group, 100 ul of whole blood were diluted with 1 μl testing compound or DMSO and 889 ul of RPMI 1640 (RPMI 1640 was consisted of 25 mM Hepes supplemented with 100 U/mL penicillin, 100 μg/mL streptomycin, 4 mM 1-glutamine, and 10% fetal calf serum) All samples from the three groups were incubated in 37° C. and 5% CO2 for 15 minutes, then 10 μl LPS (1 μg/ml) was added into these samples except samples of control group, and was kept in 37° C. and 5% CO2 for 6 h. The samples were placed on ice for 3 minutes and centrifuged for 10 min at 4° C. and 1500 g. The supernatants of the whole blood culture were taken and kept at −80° C. for analysis of TNF-α, IL-1, IL-6 and IL-8.
The samples from above described protocol were used to determine the release of TNF-α from whole blood culture induced by LPS stimulation and the inhibition by each of 22 tested compounds on the LPS-induced TNF-α production. The TNF-α production was assessed using human TNF-α Enzyme Immunometric Assay Kit (Lot. 235123) from R&D Systems (MN, USA), the detail methods are described as the instruction of the Kit. The concentration of LPS-induced TNF-α production in whole blood culture was 884.2±329.8 pg/ml. These 22 compounds were divided into three groups according to their inhibition potencies on the LPS-induced TNF-α production:
(§2) Since compounds #54 and #44 we obtained were mixed chemical isomers, these two compounds have been excluded from the IC50 experiments. […] concentrations of the compounds (#20, #33, #37, #39, and #48) were tested: 10^−9, 10^−8, 10^−7, 10^−6, 10^−5 and 10^−4 Molar/L. The parent compound, sinomenine, was used as a control. The IC50 was determined by program calcdemo.
The blood samples were incubated in the presence of LPS (concentration. 10 ng/ml) for 6 h. Sinomenine (SIN) was used as control. Because all tested compounds including SIN had no effect at concentration of 10^−9 on LPS-induced TNF-α production, the levels of LPS-induced TNF-α production at 10^−9 of tested compounds in the figures were equivalent to the levels of TNF-α in blood samples with LPS alone. Data in panel a of the figures (a1-a6) present the absolute values of TNF-α; data in panel b (b1-b6) present the percentage inhibition of the tested compounds on LPS-induced TNF-α production. All data were Mean±SD (n=6).

Experiment [2] deals with LPS-induced IL-1 production. In words: Inhibition of LPS-induced IL-1 production in human whole blood culture. The note with it: LPS 10 ng/ml, 6 h; for pIC50: human whole blood culture, IC50 by program calcdemo, read-out: IC50 to inhibit LPS-induced IL-1 production. The procedure:
as §1, §2
The inhibition of tested compounds on LPS-induced IL-1 production was assessed using human IL-1βEnzyme Immunometric Assay Kit (Lot number 145020) from Cayman Chemical Company (MI, USA). The methods are briefly described according to the instructions supplied with the Kit. All reagents and solutions were supplied with the Kit:
1) Reagents and solutions were properly prepared for the experiments to determine bioactivity according to the instruction.
2) Standard solution provided with the Kit, blood sample with testing compound and blood sample with LPS alone which were prepared as above described, 50 ul for each of these solution or blood samples, was added to each well. Then, 10 μL of DTT, 5 μL of mouse serum and 100 μL of Fab′ were also added into each well together. The well was covered with the adhesive strip. Then those wells were incubated overnight at 4° C. A plate layout was provided to record standards and samples assayed. 3) Each well was washed by filling wash buffer (600 μL) using an autowasher. The liquid was completely removed at each step to ensure good performance. This process was repeated four times for a total of five washes. 4) 200 μL of Ellman's reagent was added to each well and the plate was covered with a piece of dark paper, incubated for 4 hours at room temperature with gentle shaking. 5) The optical density of each well was determined using a microplate reader set to 412 nm.
The blood samples were incubated in the presence of LPS (concentration: 10 ng/ml) for 6 h. The inhibition of Sinomenine (SIN) on LPS-induced IL-1 production was also examined. Because all tested compounds including SIN had no effect at concentration of 10^−9 on LPS-induced IL-1 production, the levels of LPS-induced IL-1 production at 10^−9 of tested compounds in the figures were equivalent to the levels of IL-1 in blood samples with LPS alone. […]

Experiment [3] relates to LPS-induced IL-6 production. Nature of the experiment: Inhibition of LPS-induced IL-6 production in human whole blood culture. The settings on record: LPS 10 ng/ml, 6 h; for pIC50: human whole blood culture, IC50 by program calcdemo, read-out: IC50 to inhibit LPS-induced IL-6 production. The procedure:
as §1, §2
The inhibition of tested compounds on LPS-induced IL-6 production was assessed using human IL-6 Elisa Kit (Lot number 054204D) from Biosource (Carlsbad, Calif., USA). The methods are briefly described according to the instruction in the Kit as below, all reagents and solutions were supplied with the Kit:
(§3) 1) Reagents and solutions were properly prepared for the experiments to determine bioactivity according to the instruction of the Kit.
2) 50 μL of standard solution supplied with the Kit, blood sample with testing compound and blood sample with LPS alone was added per well. Then, 50 μL of Biotin Conjugate was added to each well. The well was covered with the adhesive strip. Then those wells were incubated for 2 hours at room temperature. 3) Each well was aspirated and washed by filling wash buffer (600 μL) using an autowasher. The liquid was completely removed at each step to ensure good performance. This process was repeated three times for a total of four washes. 4) 100 μL of Streptavidin-HRP working solution was added to each well and the well was covered with a new adhesive strip, incubated for 30 min at room temperature. 5) The same aspiration and wash procedures were repeated as described in step 3. 6) 100 μL of Stabilized Chromogen was added to each well and incubated for 30 minutes at room temperature. These wells were protected from light. 7) 100 μL of Stop Solution was added to each well. 8) The optical density of each well was determined within 30 minutes using a microplate reader set to 450 nm.
The blood samples were incubated in the presence of LPS (concentration: 10 ng/ml) for 6 h. The effects of sinomenine (SIN) on LPS-induced IL-6 production were also examined. […]

For experiment [4], the system named is LPS-induced IL-8 production. Nature of the experiment: Inhibition of LPS-induced IL-8 production in human whole blood culture. The note with it: LPS 10 ng/ml, 6 h; for pIC50: human whole blood culture, IC50 by program calcdemo, read-out: IC50 to inhibit LPS-induced IL-8 production. The procedure: as §1, §2
The inhibition of tested compounds on LPS-induced IL-8 production was assessed using human IL-8 Elisa Kit (Lot number 061302B) from Biosource (Carlsbad, Calif., USA). The methods are briefly described according to the instruction in the Kit as below, all reagents and solutions were supplied with the Kit:
as §3
2) Standard solution supplied with the Kit, blood sample with testing compound and blood sample with LPS alone was (50 μL of each item) added into per well. Then, 50 μL of Biotin Conjugate was also added to each well. The well was covered with the adhesive strip. Then those wells were incubated for 1.5 hours at room temperature. 3) Each well was aspirated and washed by filling wash buffer (600 μL) using an autowasher. The liquid was completely removed at each step to ensure good performance. This process was repeated three times for a total of four washes. 4) 100 μL of Streptavidin-HRP working solution was added to each well and the well was covered with a new adhesive strip, incubated for 30 min at room temperature. 5) The same aspiration and wash procedures were repeated as described in step 3. 6) 100 μL of Stabilized Chromogen was added to each well and incubated for 30 minutes at room temperature. These wells were protected from light. 7) 100 μL of Stop Solution was added to each well. 8) The optical density of each well was determined within 30 minutes using a microplate reader set to 450 nm.
The blood samples were incubated in the presence of LPS (concentration: 10 ng/ml) for 6 hours. The effects of sinomenine (SIN) on LPS-induced IL-8 production were also examined. […]

Each structure is given as a SMILES string. pIC50: −log10 of the molar value.

By pIC50 is commonly meant the IC50 on a negative log10 scale, so that one unit is a factor of ten. In the case of `COC1=CC2[C@@H]3Cc4ccc(OC)c(O)c4[C@]2(CCN3C)CC1=O` (stereo partly drawn) [Compound 1, sinomenine], the “effect on LPS-induced TNF-α production at concentration of 10^−9” value in experiment [1] (10^−9 mol/L) is listed as “no effect”. Also, the “effect on LPS-induced IL-1 production at concentration of 10^−9” value in experiment [2] (10^−9 mol/L) was “no effect”. For the same compound, the “effect on LPS-induced IL-6 production at concentration of 10^−9” value in experiment [3] (10^−9 mol/L) is on record as “no effect”. In addition, the pIC50 in experiment [3] is 2.77; in experiment [4], 4.13. For the same compound, the “effect on LPS-induced IL-8 production at concentration of 10^−9” value in experiment [4] (10^−9 mol/L) was “no effect”.
By inhibition is commonly meant the relative decrease from the control value, in per cent. For `COC1=CC2[C@@H]3Cc4ccc(OC)c(O)c4[C@]2(CCN3C(=O)c2cc(C)cc(C)c2)CC1=O` (stereo partly drawn) [Compound 9], the inhibition at 10 µM in experiment [1] (compound 10^−5 mol/L, human whole blood culture, read-out: inhibition of LPS-induced TNF-α production compared to LPS alone) was below 30%.
As for `COC(=O)c1cccc(C)c1S(=O)(=O)N1CC[C@@]23CC(=O)C(OC)=C[C@@H]2[C@@H]1Cc1ccc(OC)c(O)c13` [Compound 33], the pIC50 in experiment [1] (human whole blood culture) is 5.36; in experiment [2] it was 4.00; in experiment [3], 5.06; in experiment [4], 2.14.
Consider `COC1=C[C@@H]2[C@@H]3Cc4ccc(OC)c(O)c4[C@]2(CCN3C(=O)c2cccnc2)CC1=O` [Compound 37], for which the pIC50 in experiment [1] (human whole blood culture) was 3.38; in experiment [2], 5.06; in experiment [4], 2.12.
Consider `COC1=C[C@@H]2[C@@H]3Cc4ccc(OC)c(O)c4[C@]2(CCN3C(=O)c2ccc(C)cc2)CC1=O` [Compound 39], for which the pIC50 in experiment [1] (human whole blood culture) was 4.89; in experiment [2], 2.31; in experiment [3], 5.28.
For the compound `COc1ccc2c(c1OC)C13CCN(C)C(C2)C1CC=NN(S(=O)(=O)c1ccc(C)cc1)C(O)C3` (stereo not drawn) [Compound 48], the pIC50 in experiment [1] (human whole blood culture) is 3.12; in experiment [2], 2.02; in experiment [3], 3.00; in experiment [4] it was 2.42.

Source of the values: patent US7932264B2, “Sinomenine derivatives and preparation and uses thereof” (priority 2005, dated 2011).
